Tested on: HBV cccDNA (HBeAg level) in HepDES19 cells
Experiment: Engineered HepDES19 primary screen assay (HBeAg as surrogate marker for cccDNA)
Assay type: cell-based
Conditions: Hepatitis B virus, HepDES19, 120 h
Description: The assay was employed to screen for novel cccDNA inhibitors. HepDES19 is a cccDNA-producing cell line. In this cell line, HBeAg in the cell culture supernatant as surrogate marker, as HBeAg production depends on cccDNA level and activity. HepDES19 is an engineered cell line which contains a 1.1 unit length HBV genome, and pgRNA transcription from the transgene is controlled by Tetracycline (Tet). In the absence of Tet, pgRNA transcription will be induced, but HBV e antigen (HBeAg) could not be produced from this pgRNA due to very short leader sequence before the HBeAg start codon and the start codon is disrupted. Only after cccDNA is formed, the missing leader sequence and start codon mutation would be restored from the 3′-terminal redundancy of pgRNA, and then HBeAg could be synthesized. Therefore, HBeAg could be used as a surrogate marker for cccDNA (Zhou, T. et al., Antiviral Res. (2006), 72(2), 116-124; Guo, H. et al., J. Virol. (2007), 81(22), 12472-12484).
HepDES19 cells were seeded at 2×10^6 cells per T150 flask and cultured with the culture medium (Dulbecco's Modified Eagle Medium: Nutrient Mixture F-12 [DMEM-F12, Gibco Cat. 11320-82], 10% Fetal Bovine Serum [FBS, Clontech Cat. 631101], 0.1 mM Non-Essential Amino Acids Solution [NEAA, Gibco Cat. 11140-050], 50 μg/mL Penicillin-Streptomycin [PS, Invitrogen Cat. 15140-163], 500 μg/mL Geneticin [G418, Invitrogen Cat. 10131-027]) containing 3 μg/mL Tet (Sigma, Cat. 87128) for 5 days. Cells were then seeded at 4×10^6 cells per T150 in the same culture medium as described above in the absence of Tet for 8 days. Cells were then harvested and frozen at density of 2×10^6 cells per mL. For compound testing, the frozen cells were thawed and seeded into 96-well plates at a density of 6×10^4 cells per well. At 24 hours after seeding, half log serial dilutions of compounds made with Dimethyl sulfoxide (DMSO, Sigma, Cat. D2650) were further diluted with the same culture medium as described above before they were added to the cells to reach desired final compound concentrations and 1% DMSO concentration. Plates were then incubated at 37° C. for another 5 days before measurement of HBeAg level and cell viability. Intracellular HBeAg level were measured with enzyme-linked immunosorbent assay (ELISA) kit (Shanghai Kehua Diagnostic Medical Products Co., Ltd). Cell viability was assessed using Cell Counting Kit-8 (Donjindo, Cat. CK04-20). IC50 values were derived from the dose-response curve using 4 parameter logistic curve fit method.
The compounds of the present invention were tested for their capacity to inhibit extracellular HBeAg level as described herein.

Cc1cc(Cl)ccc1NC(=O)c1cc(=O)c2cccc(Cl)c2o1 [Example 8, 8-chloro-N-(4-chloro-2-methylphenyl)-4-oxo-chromene-2-carboxamide]
IC50: 0.32 µM

O=C(O)CCCOc1cc(Cl)ccc1NC(=O)c1cc(=O)c2cc(Cl)cc(Cl)c2o1 [Example 11, 4-(5-chloro-2-(6,8-dichloro-4-oxo-chromene-2-carboxamido)phenoxy)butanoic Acid]
IC50: 3.12 µM

O=C(c1cc(=O)c2cccc(Cl)c2o1)N1CCc2cc(Br)ccc2C1 [Example 17, 2-(6-bromo-1,2,3,4-tetrahydroisoquinoline-2-carbonyl)-8-chloro-chromen-4-one]
IC50: 10.8 µM

O=C(O)COc1cc(Cl)ccc1NC(=O)c1cc(=O)c2cccc(Cl)c2o1 [Example 20, 2-(5-chloro-2-(8-chloro-4-oxo-chromene-2-carboxamido)phenoxy)acetic Acid]
IC50: 50 µM

COC(=O)c1ccc(C)c(NC(=O)c2cc(=O)c3cccc(Cl)c3o2)c1 [Example 21, Methyl 3-(8-chloro-4-oxo-chromene-2-carboxamido)-4-methylbenzoate]
IC50: 11 µM

O=C(O)COCCOc1cc(Cl)ccc1NC(=O)c1cc(=O)c2cc(Cl)cc(Cl)c2o1 [Example 22, 2-(2-(5-chloro-2-(6,8-dichloro-4-oxo-chromene-2-carboxamido)phenoxy)ethoxy)acetic Acid]
IC50: 11.9 µM

Cc1cc(NC(=O)c2cc(=O)c3cccc(Cl)c3o2)ncc1Br [Example 23, N-(5-bromo-4-methylpyridin-2-yl)-8-chloro-4-oxo-chromene-2-carboxamide]
IC50: 11.9 µM

O=C(O)COCCOc1cc(Cl)ccc1NC(=O)c1cc(=O)c2cccc(Cl)c2o1 [Example 24, 2-(2-(5-chloro-2-(8-chloro-4-oxo-chromene-2-carboxamido)phenoxy)ethoxy)acetic Acid]
IC50: 13.9 µM

COC(=O)c1cc(Cl)ccc1NC(=O)c1cc(=O)c2cccc(Cl)c2o1 [Example 25, Methyl 5-chloro-2-(8-chloro-4-oxo-chromene-2-carboxamido)benzoate]
IC50: 16.2 µM

COC(=O)c1ccc(CNC(=O)c2cc(=O)c3cccc(Cl)c3o2)cc1 [Example 26, Methyl 4-((8-chloro-4-oxo-chromene-2-carboxamido)methyl)benzoate]
IC50: 20.6 µM

COC(=O)c1ccc(NC(=O)c2cc(=O)c3cccc(Cl)c3o2)c(C)c1 [Example 27, Methyl 4-(8-chloro-4-oxo-chromene-2-carboxamido)-3-methylbenzoate]
IC50: 23.4 µM

O=C(c1cc(=O)c2cccc(Cl)c2o1)N1CCc2cccc(Cl)c2C1 [Example 28, 8-chloro-2-(8-chloro-3,4-dihydro-1H-isoquinoline-2-carbonyl)chromen-4-one]
IC50: 24.3 µM

CC(NC(=O)c1cc(=O)c2cccc(Cl)c2o1)c1ccc(Br)cc1 (stereo not shown) [Example 29, N-(1-(4-bromophenyl)ethyl)-8-chloro-4-oxo-chromene-2-carboxamide]
IC50: 24.9 µM

Cc1cc(O)ccc1NC(=O)c1cc(=O)c2cccc(Cl)c2o1 [Example 30, 8-chloro-N-(4-hydroxy-2-methylphenyl)-4-oxo-chromene-2-carboxamide]
IC50: 25.9 µM

O=C(c1cc(=O)c2cccc(Cl)c2o1)N1Cc2cccc(Br)c2C1 [Example 31, 2-(4-bromoisoindoline-2-carbonyl)-8-chloro-chromen-4-one]
IC50: 26.8 µM

COc1cc(Br)cnc1NC(=O)c1cc(=O)c2cccc(Cl)c2o1 [Example 32, N-(5-bromo-3-methoxypyridin-2-yl)-8-chloro-4-oxo-chromene-2-carboxamide]
IC50: 33.7 µM

O=C(c1cc(=O)c2cccc(Cl)c2o1)N1CCCc2ccc([N+](=O)[O-])cc21 [Example 33, 8-chloro-2-(7-nitro-3,4-dihydro-2H-quinoline-1-carbonyl)chromen-4-one]
IC50: 35.3 µM

O=C(Nc1ccc(Cl)cc1OCCOC1CC(C(=O)O)C1)c1cc(=O)c2cccc(Cl)c2o1 (stereo not shown) [Example 34, 3-(2-(5-chloro-2-(8-chloro-4-oxo-chromene-2-carboxamido)phenoxy)ethoxy)cyclobutane-1-carboxylic Acid]
IC50: 44.6 µM

CCOC(=O)c1nnc(NC(=O)c2cc(=O)c3cccc(Cl)c3o2)s1 [Example 35, Ethyl 5-(8-chloro-4-oxo-chromene-2-carboxamido)-1,3,4-thiadiazole-2-carboxylate]
IC50: 44.6 µM

COC(=O)c1cccc(COC2CC3CCC(C2)N3c2cc(=O)c3cccc(Cl)c3o2)c1 (stereo not shown) [Example 41, Methyl 3-(((8-(8-chloro-4-oxo-chromen-2-yl)-8-azabicyclo[3.2.1]octan-3-yl)oxy)methyl)benzoate]
IC50: 3.99 µM

COc1ccc(CNc2oc3c(Cl)cccc3c(=O)c2I)cc1 [Example 42, 8-chloro-3-iodo-2-((4-methoxybenzyl)amino)-chromen-4-one]
IC50: 4.34 µM

COc1ccc2c(c1)CN(c1cc(=O)c3cccc(Cl)c3o1)C2=O [Example 43, 2-(8-chloro-4-oxo-chromen-2-yl)-5-methoxyisoindolin-1-one]
IC50: 4.78 µM

COc1ccc2c(c1)CCN(c1cc(=O)c3cccc(Cl)c3o1)C2=O [Example 44, 2-(8-chloro-4-oxo-chromen-2-yl)-6-methoxy-3,4-dihydroisoquinolin-1-one]
IC50: 5.44 µM

O=c1cc(N2CCN(c3ccccc3)CC2)oc2c(Cl)cc(F)cc12 [Example 45, 8-chloro-6-fluoro-2-(4-phenylpiperazin-1-yl)-chromen-4-one]
IC50: 8.58 µM

O=c1c(I)c(-n2ccc(OCc3ccccc3)cc2=O)oc2c(Cl)cccc12 [Example 46, 4-benzyloxy-1-(8-chloro-3-iodo-4-oxo-chromen-2-yl)pyridin-2-one]
IC50: 9.66 µM

O=c1cc(N2CC3(CC(O)C3)C2)oc2c(Cl)cccc12 [Example 47, 8-chloro-2-(6-hydroxy-2-azaspiro[3.3]heptan-2-yl)chromen-4-one]
IC50: 10.7 µM

COc1ccc(CN(C)c2cc(=O)c3cccc(Cl)c3o2)cc1 [Example 48, 8-chloro-2-((4-methoxybenzyl)(methyl)amino)-chromen-4-one]
IC50: 12.1 µM

O=c1cc(N2CCC(c3ccccc3)CC2)oc2c(Cl)cc(F)cc12 [Example 49, 8-chloro-6-fluoro-2-(4-phenylpiperidin-1-yl)-chromen-4-one]
IC50: 12.4 µM

O=C(O)C1CC(OCCOc2ccc(C3CCN(c4cc(=O)c5cc(F)cc(Cl)c5o4)CC3)cc2)C1 (stereo not shown) [Example 50, 3-(2-(4-(1-(8-chloro-6-fluoro-4-oxo-chromen-2-yl)piperidin-4-yl)phenoxy)ethoxy)cyclobutane-1-carboxylic Acid]
IC50: 14.1 µM

O=c1cc(N2C3CCC2CC(O)C3)oc2c(Cl)cccc12 (stereo not shown) [Example 51, 8-chloro-2-(3-hydroxy-8-azabicyclo[3.2.1]octan-8-yl)-chromen-4-one]
IC50: 14.8 µM

COc1ccc(CNc2cc(=O)c3cccc(Cl)c3o2)cc1 [Example 52, 8-chloro-2-((4-methoxybenzyl)amino)-chromen-4-one]
IC50: 15 µM

COC(=O)c1cccc(N2CCN(c3cc(=O)c4cccc(Cl)c4o3)CC2)c1 [Example 53, Methyl 3-(4-(8-chloro-4-oxo-chromen-2-yl)piperazin-1-yl)benzoate]
IC50: 15 µM

COC(=O)C1CC(OCCOc2ccc3c(c2)C(=O)N(c2cc(=O)c4cccc(Cl)c4o2)C3)C1 (stereo not shown) [Example 54, Methyl 3-(2-((2-(8-chloro-4-oxo-chromen-2-yl)-3-oxoisoindolin-5-yl)oxy)ethoxy)cyclobutanecarboxylate]
IC50: 16 µM

COc1ccc2c(c1)C(=O)N(c1cc(=O)c3cccc(Cl)c3o1)C2 [Example 55, 2-(8-chloro-4-oxo-chromen-2-yl)-6-methoxyisoindolin-1-one]
IC50: 16.7 µM

CN(Cc1ccc(OCCOC2CC(C(=O)O)C2)cc1)c1cc(=O)c2cccc(Cl)c2o1 (stereo not shown) [Example 56, 3-(2-(4-(((8-chloro-4-oxo-chromen-2-yl)(methyl)amino)methyl)phenoxy)ethoxy)cyclobutanecarboxylic acid]
IC50: 19.6 µM

CC1c2ccc(O)cc2CCN1c1cc(=O)c2cccc(Cl)c2o1 (stereo not shown) [Example 57, 8-chloro-2-(6-hydroxy-1-methyl-3,4-dihydro-1H-isoquinolin-2-yl)chromen-4-one]
IC50: 20 µM

O=C(O)C1CC(OCCOc2ccc3c(c2)CCN(c2cc(=O)c4cccc(Cl)c4o2)C3=O)C1 (stereo not shown) [Example 58, 3-(2-((2-(8-chloro-4-oxo-chromen-2-yl)-1-oxo-1,2,3,4-tetrahydroisoquinolin-6-yl)oxy)ethoxy)cyclobutanecarboxylic Acid]
IC50: 23.4 µM

Reference: US11993591B2, “Chromen-4-one derivatives for the treatment and prophylaxis of hepatitis B virus disease” (Hoffmann-La Roche Inc., priority 2018, dated 2024)
